“Also recorded” adds a separate entry of the source. Where a name gives a salt, the structure may show the parent alone.
How the values were obtained:
SPC111 = assay: combination with HSV1716, Chou-Talalay, SPC111; format: cell-based, human; details: SPC111, HSV1716 moi 0.5 and 0.05, 72 hours
U87 = format: cell-based, human
CP70 = format: cell-based, human
UVW = format: cell-based, human
SKOV3 = format: cell-based, human
HSV1716gfp = assay: GFP expression during infection with HSV1716gfp (drug toxicity to virus); format: cell-based, herpes simplex virus
Virttu cell line panel = assay: cells; format: cell-based; details: Homo sapiens; most/all cell lines of panel, 72 hrs; read-out: IC50 (DCP leakage), range over cell lines
Virttu cell panel = assay: combination with HSV1716, DCP cell death, Chou-Talalay analysis, cell panel; format: cell-based, human
PARP = PARP cleavage by Western blotting; format: cell-based, human; details: in combination with HSV1716
HepG2-luc = format: cell-based, human
One58 = format: cell-based, human
HuH7 = format: cell-based, human
Ovcar3 = format: cell-based, human
PDGFRβ = PDGFRβ (Homo sapiens, UniProt P09619); details: cited from earlier work
PDGFRβ, sequence (P09619 33-1106): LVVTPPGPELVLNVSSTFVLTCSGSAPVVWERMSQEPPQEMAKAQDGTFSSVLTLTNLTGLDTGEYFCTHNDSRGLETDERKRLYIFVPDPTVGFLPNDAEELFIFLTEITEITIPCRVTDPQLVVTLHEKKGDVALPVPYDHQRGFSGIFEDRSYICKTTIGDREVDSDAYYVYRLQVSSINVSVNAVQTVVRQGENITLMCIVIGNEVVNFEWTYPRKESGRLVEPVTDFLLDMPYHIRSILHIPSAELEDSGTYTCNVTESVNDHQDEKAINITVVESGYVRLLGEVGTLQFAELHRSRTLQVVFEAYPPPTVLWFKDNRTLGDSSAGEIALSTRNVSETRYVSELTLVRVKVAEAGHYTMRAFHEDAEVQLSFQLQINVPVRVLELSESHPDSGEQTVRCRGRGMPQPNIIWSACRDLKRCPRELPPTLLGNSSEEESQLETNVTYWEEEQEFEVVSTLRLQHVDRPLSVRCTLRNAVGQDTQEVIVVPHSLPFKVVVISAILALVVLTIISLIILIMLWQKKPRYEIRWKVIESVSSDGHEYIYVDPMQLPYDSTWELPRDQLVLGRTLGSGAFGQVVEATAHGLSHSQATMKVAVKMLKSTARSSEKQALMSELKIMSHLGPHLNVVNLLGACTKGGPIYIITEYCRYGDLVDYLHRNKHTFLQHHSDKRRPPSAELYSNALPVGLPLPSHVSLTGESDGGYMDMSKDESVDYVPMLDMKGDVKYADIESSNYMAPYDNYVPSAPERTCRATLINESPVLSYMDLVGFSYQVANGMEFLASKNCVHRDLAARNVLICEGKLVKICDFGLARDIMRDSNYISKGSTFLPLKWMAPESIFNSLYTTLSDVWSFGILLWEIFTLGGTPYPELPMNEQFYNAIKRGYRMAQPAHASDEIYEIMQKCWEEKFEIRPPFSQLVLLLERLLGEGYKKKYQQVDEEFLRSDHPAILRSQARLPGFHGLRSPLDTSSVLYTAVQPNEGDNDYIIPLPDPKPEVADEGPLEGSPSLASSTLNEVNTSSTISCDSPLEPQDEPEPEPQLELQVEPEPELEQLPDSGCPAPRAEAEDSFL

VEGFR2 = details: cited from earlier work; for IC50: read-out: IC50 for VEGFR2 (KDR)
Hep3B = format: cell-based, human
[1] = tested on: human gastric carcinoma xenograft; assay: patient-derived human gastric carcinoma xenograft model; design: species or system mice; details: mouse, in vivo
Procedure: HSV1716 (Seprehvir) was used in a personalised oncology study. Patient-derived tumour samples were obtained from a gastric carcinoma. There have been no previous in vitro or in vivo pre-clinical studies with Seprehvir in human gastric carcinoma cells/xenografts. Seprehvir was stored at −70° C., and multiple vials were provided to avoid repeated freeze/thawing.
Two groups of 3 mice with gastric carcinoma implants were treated with 2×10^6 pfu Seprehvir by either intratumoural (IT) or intravenous (IV) routes of administration. Control mice (n=3) received no treatment and in these mice the implants grew rapidly and all were sacrificed within 18 days (FIG. 61). For IV injection, Seprehvir was administered on days 0, 3, 10 and 18, at which point the tumors were too large and the mice were sacrificed.
For IT injection of Seprehvir, 2×10^6 pfu was administered on days 0, 3, 10, 18, 21 and 25.
. Control mice (n=3) received no treatment and in these mice the implants grew rapidly and all were sacrificed within 18 days (FIG. 62). […]. A follow-on study with HSV1716 administering more frequent by IV dosing at the higher concentration of 10^7 pfu was performed using the same human gastric carcinoma xenograft model. […].
Groups of 3 mice received IV injection of HSV1716 at 1×10^7 pfu on days 1, 3, 5, 8, 10, 12, 15, 17 and 19. […]

c-Met = c-Met (Homo sapiens, UniProt P08581); details: cited from earlier work
c-Met, sequence (P08581 25-1390): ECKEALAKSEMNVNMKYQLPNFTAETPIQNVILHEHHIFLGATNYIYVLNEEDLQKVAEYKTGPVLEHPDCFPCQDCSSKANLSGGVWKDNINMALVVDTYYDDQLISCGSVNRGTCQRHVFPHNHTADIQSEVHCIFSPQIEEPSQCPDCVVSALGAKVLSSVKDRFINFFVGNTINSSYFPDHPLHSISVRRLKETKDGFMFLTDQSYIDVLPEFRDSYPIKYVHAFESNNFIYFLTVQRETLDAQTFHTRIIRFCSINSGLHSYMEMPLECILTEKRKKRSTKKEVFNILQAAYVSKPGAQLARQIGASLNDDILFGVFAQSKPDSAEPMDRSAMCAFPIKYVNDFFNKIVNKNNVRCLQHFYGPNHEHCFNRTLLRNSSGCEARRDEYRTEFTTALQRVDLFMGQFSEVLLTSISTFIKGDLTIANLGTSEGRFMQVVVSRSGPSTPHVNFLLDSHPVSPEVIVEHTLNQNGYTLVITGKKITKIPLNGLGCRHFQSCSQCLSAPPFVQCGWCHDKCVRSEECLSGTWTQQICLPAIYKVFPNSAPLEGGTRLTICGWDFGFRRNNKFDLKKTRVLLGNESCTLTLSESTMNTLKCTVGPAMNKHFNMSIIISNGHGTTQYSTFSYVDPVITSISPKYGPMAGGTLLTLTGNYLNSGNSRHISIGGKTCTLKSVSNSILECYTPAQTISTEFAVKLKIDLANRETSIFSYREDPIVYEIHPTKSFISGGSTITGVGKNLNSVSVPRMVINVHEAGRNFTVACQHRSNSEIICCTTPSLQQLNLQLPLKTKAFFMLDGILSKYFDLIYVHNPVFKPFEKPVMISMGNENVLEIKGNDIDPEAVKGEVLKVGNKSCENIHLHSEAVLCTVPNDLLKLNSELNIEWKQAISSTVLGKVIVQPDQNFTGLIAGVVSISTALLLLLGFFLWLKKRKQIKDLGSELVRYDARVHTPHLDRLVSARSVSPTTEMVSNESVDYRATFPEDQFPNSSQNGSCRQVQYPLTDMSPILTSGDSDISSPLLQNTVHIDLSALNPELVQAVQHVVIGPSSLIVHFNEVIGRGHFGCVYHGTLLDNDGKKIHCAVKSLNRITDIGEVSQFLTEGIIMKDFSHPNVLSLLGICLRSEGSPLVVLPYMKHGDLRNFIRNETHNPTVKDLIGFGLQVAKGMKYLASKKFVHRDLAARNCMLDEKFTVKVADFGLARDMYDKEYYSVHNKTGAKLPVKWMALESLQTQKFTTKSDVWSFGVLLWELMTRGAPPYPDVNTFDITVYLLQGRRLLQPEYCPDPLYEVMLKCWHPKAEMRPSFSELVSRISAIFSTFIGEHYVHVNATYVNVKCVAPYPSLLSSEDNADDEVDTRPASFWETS

H3255 = details: H3255, Gefitinib sensitive L858R; cited from earlier work
H1666 = details: H1666, wild-type EGFR; read-out: IC50, inhibiting survival of lung cancer cell line; cited from earlier work
NCI-H1975 = details: NCI-H1975, L858R/T790M EGFR; read-out: IC50, inhibiting survival of lung cancer cell line; cited from earlier work
B-Raf = details: read-out: IC50 for B-Raf; cited from earlier work

CCN(CC)CCNC(=O)c1c(C)[nH]c(/C=C2\C(=O)Nc3ccc(F)cc32)c1C [Sunitinib, N-(2-diethylaminoethyl)-5-[(Z)-(5-fluoro-2-oxo-1H-indol-3-ylidene)methyl]-2,4-dimethyl-1H-pyrrole-3-carboxamide]
synergy/antagonism with HSV1716 on cell death (Chou-Talalay) (SPC111): strongly synergistic
synergy/antagonism with HSV1716 on cell death (Chou-Talalay) (U87): strongly synergistic
synergy/antagonism with HSV1716 on cell death (Chou-Talalay) (CP70): strongly synergistic
synergy/antagonism with HSV1716 on cell death (Chou-Talalay) (UVW): antagonistic
synergy/antagonism with HSV1716 on cell death (Chou-Talalay) (SKOV3): some evidence of synergy
effect on GFP expression during HSV1716gfp infection (HSV1716gfp; CP70, moi 0.05, 72 hrs): more pronounced
effect on GFP expression during HSV1716gfp infection (HSV1716gfp; SPC111, moi 0.05, 72 hrs): more pronounced
effect on GFP expression during HSV1716gfp infection (HSV1716gfp; all 9 cell lines tested, moi 0.5 and moi 0.05, 72 hours): increased GFP expression
IC50 (Virttu cell line panel): 0.5 to 15 µM
number of cell lines in which moi 0.05 generated synergy (Virttu cell panel): 9 of the 10
number of cell lines in which moi 0.5 generated synergy (Virttu cell panel): 7 of the 10
number of cell lines tested with clear synergy signals / synergism with HSV1716 (Virttu cell panel): 9 of the 10
PARP cleavage (executioner phase of apoptosis) (PARP; Hep3B cells): PARP cleavage demonstrated by Western blotting
PARP cleavage (executioner phase of apoptosis) (PARP; Ovcar3 cells): PARP cleavage demonstrated by Western blotting
synergy/antagonism with HSV1716 on cell death (Chou-Talalay) (HepG2-luc): strongly synergistic
synergy/antagonism with HSV1716 on cell death (Chou-Talalay) (One58): strongly synergistic

C[C@@H](Oc1cc(-c2cnn(C3CCNCC3)c2)cnc1N)c1c(Cl)ccc(F)c1Cl [Crizotinib, 3-[(1R)-1-(2,6-dichloro-3-fluorophenyl)ethoxy]-5-(1-piperidin-4-ylpyrazol-4-yl)pyridin-2-amine]
synergy/antagonism with HSV1716 on cell death (Chou-Talalay) (SPC111): some limited synergy
synergy/antagonism with HSV1716 on cell death (Chou-Talalay) (U87): strongly synergistic
synergy/antagonism with HSV1716 on cell death (Chou-Talalay) (HuH7): some limited synergy
synergy/antagonism with HSV1716 on cell death (Chou-Talalay) (CP70): strongly synergistic
synergy/antagonism with HSV1716 on cell death (Chou-Talalay) (UVW): strongly synergistic
synergy/antagonism with HSV1716 on cell death (Chou-Talalay) (SKOV3): some limited synergy
effect on GFP expression during HSV1716gfp infection (HSV1716gfp; CP70, moi 0.5 and 0.05, 72 hrs): increased GFP expression
effect on GFP expression during HSV1716gfp infection (HSV1716gfp; Hep3B, moi 0.5 and 0.05, 72 hrs): decreased GFP expression
effect on GFP expression during HSV1716gfp infection (HSV1716gfp; HepG2-luc, both moi (0.5 and 0.05), 72 hrs): little effect on GFP expression
effect on GFP expression during HSV1716gfp infection (HSV1716gfp; HuH7, moi 0.5 and 0.05, 72 hrs): decreased GFP expression
effect on GFP expression during HSV1716gfp infection (HSV1716gfp; One58, moi 0.5 and 0.05, 72 hrs): increased GFP expression
effect on GFP expression during HSV1716gfp infection (HSV1716gfp; Ovcar3, moi 0.5 and 0.05, all drug doses, 72 hrs): little effect on GFP expression
effect on GFP expression during HSV1716gfp infection (HSV1716gfp; SPC-111, moi 0.5 and 0.05, all drug doses, 72 hrs): little effect on GFP expression
effect on GFP expression during HSV1716gfp infection (HSV1716gfp; Skov3, moi 0.5 and 0.05, all drug doses, 72 hrs): little effect on GFP expression
effect on GFP expression during HSV1716gfp infection (HSV1716gfp; U87, moi 0.5 and 0.05, 72 hrs): increased GFP expression
effect on GFP expression during HSV1716gfp infection (HSV1716gfp; UVW, moi 0.5 and 0.05, 72 hrs): decreased GFP expression
IC50 (Virttu cell line panel): 2 to 30 µM
number of cell lines in which moi 0.05 generated synergy (Virttu cell panel): 8 of the 9
number of cell lines in which moi 0.5 generated synergy (Virttu cell panel): 3 of the 9
synergy/antagonism with HSV1716 on cell death (Chou-Talalay) (HepG2-luc): synergistic
synergy/antagonism with HSV1716 on cell death (Chou-Talalay) (One58): antagonistic
synergy/antagonism with HSV1716 on cell death (Chou-Talalay) (Ovcar3): some limited synergy

Cc1[nH]c(/C=C2\C(=O)Nc3ccccc32)c(C)c1CCC(=O)O [TSU-68, (Z)-3-(2,4-dimethyl-5-((2-oxoindolin-3-ylidene)methyl)-1H-pyrrol-3-yl)propanoic acid]
Ki (PDGFRβ; read-out: Ki for PDGFRβ): 0.008 µM
Ki (VEGFR2; read-out: Ki for VEGFR2 (Flk-1/KDR)): 2.1 µM

COc1cc2ncnc(Nc3ccc(F)c(Cl)c3)c2cc1OCCCN1CCOCC1 [Gefitinib, N-(3-chloro-4-fluoro-phenyl)-7-methoxy-6-(3-morpholin-4-ylpropoxy)quinazolin-4-amine]
overall synergy/antagonism with HSV1716 on cell death (Virttu cell panel): antagonistic with HSV1716 in all cell lines; also recorded: mostly antagonistic
synergy/antagonism with HSV1716 on cell death (Chou-Talalay) (Hep3B): Synergy

CNC(=O)c1cc(Oc2ccc(NC(=O)Nc3ccc(Cl)c(C(F)(F)F)c3)c(F)c2)ccn1.O [Regorafenib, 4-[4-({[4-Chloro-3-(trifluoromethyl)phenyl]carbamoyl}amino)-3-fluorophenoxy]-N-methylpyridine-2-carboxamide hydrate]
tumour growth inhibition [1]: highly effective at tumour growth inhibition

Nc1nccc(Oc2ccc(NC(=O)c3c[nH]cc(-c4ccc(F)cc4)c3=O)cc2F)c1Cl [BMS 794833, N-(4-((2-amino-3-chloropyridin-4-yl)oxy)-3-fluorophenyl)-5-(4-fluorophenyl)-4-oxo-1,4-dihydropyridine-3-carboxamide]
IC50 (VEGFR2): 0.015 µM

COc1cc2c(Oc3ccc4[nH]c(C)cc4c3F)ncnc2cc1OCCCN1CCCC1 [Cediranib, 4-[(4-fluoro-2-methyl-1H-indol-5-yl)oxy]-6-methoxy-7-[3-(pyrrolidin-1-yl)propoxy]quinazoline]
IC50 (VEGFR2): 0.0005 µM

N-(2-fluoro-4-((2-(4-(4-methylpiperazin-1-yl)piperidine-1-carboxamido)pyridin-4-yl)oxy)phenyl)-N-(4-fluorophenyl)cyclopropane-1,1-dicarboxamide [Golvatinib]
IC50 (c-Met): 0.014 µM
IC50 (VEGFR2): 0.016 µM

CN(C[C@@H]1COCCO1)S(=O)(=O)Nc1ccc2ccc3ncc(-c4cnn(C)c4)cc3c(=O)c2c1 [MK-2461, N-((2R)-1,4-Dioxan-2-ylmethyl)-N-methyl-N′-[3-(1-methyl-1H-pyrazol-4-yl)-5-oxo-5H-benzo[4,5]cyclohepta[1,2-b]pyridin-7-yl]sulfamide]
IC50 (PDGFRβ): 0.022 µM
IC50 (c-Met): 0.0025 µM

Cc1cc(F)c(Nc2ncnc3cc(OCc4ccccc4)ccc23)cc1O [ZM 323881 HCl, 5-((7-Benzyloxyquinazolin-4-yl)amino)-4-fluoro-2-methylphenol hydrochloride]
IC50 (VEGFR2): < 0.002 µM

N#CC1(c2ccc(NC(=O)c3cccnc3NCc3ccncc3)cc2)CCCC1 [Apatinib, N-[4-(1-cyanocyclopentyl)phenyl-2-(4-picolyl)amino-3-Nicotinamide methanesulphonate]
IC50 (VEGFR2): 0.00234 µM

CCN1CCN(Cc2ccc(-c3cc4c(N[C@H](C)c5ccccc5)ncnc4[nH]3)cc2)CC1 [AEE788, 6-[4-[(4-Ethylpiperazin-1-yl)methyl]phenyl]-N-[(1R)-1-phenylethyl]-7H-pyrrolo[2,3-d]pyrimidin-4-amine]
IC50 (VEGFR2): 0.077 µM

CCCNC(=O)Nc1ccc(Oc2ncnc3cc(OC)c(OC)cc23)cc1Cl [KRN 633, N-[2-Chloro-4-[(6,7-dimethoxy-4-quinazolinyl)oxy]phenyl]-N′-propylurea]
IC50 (PDGFRβ): 9.85 µM
IC50 (VEGFR2): 0.16 µM

CN(C)CC=CC(=O)Nc1cc2c(Nc3ccc(F)c(Cl)c3)ncnc2cc1O[C@H]1CCOC1 [Afantinib, N-[4-[(3-Chloro-4-fluorophenyl)amino]-7-[[(3S)-tetrahydro-3-furanyl]oxy]-6-quinazolinyl]-4(dimethylamino)-2-butenamide]
IC50, inhibiting survival of lung cancer cell line (H3255): subnanomolar
IC50 (H1666): < 0.1 µM
IC50 (NCI-H1975): < 0.1 µM

Reference: patent publication US20150374767A1, “Treatment of Cancer” (priority 2013, published 2015)
